How the values were obtained:
[1] = target: T1, Replicase polyprotein 1ab (Severe acute respiratory syndrome coronavirus 2, UniProt P0DTD1); test: Binding affinity to SARS-CoV-2 nsp14 assessed as dissociation constant
[2] = target: Replicase polyprotein 1ab; test: Inhibition of N-terminal 6His-tagged SARS-CoV nsp14 extracted from Escherichia coli
SARS-CoV-2 = test: Antiviral activity against SARS-CoV-2 infected in African green monkey Vero E6 cells assessed as inhibition of viral growth incubated for 72 hrs by plaque assay; format: functional, organism-based; details: Severe acute respiratory syndrome coronavirus 2, Vero C1008, 72 h
[3] = target: T1, Replicase polyprotein 1ab; test: Binding affinity to SARS-CoV-2 nsp14 assessed as inhibition constant

SMILES | IC50 [2] [µM] | EC50 (SARS-CoV-2) [µM] | also measured
Nc1ncnc2c1c(C#Cc1cnc3ccccc3c1)cn2[C@@H]1O[C@H](CSCC[C@H](N)C(=O)O)[C@@H](O)[C@H]1O | 0.003 |  | Kd [1]: 0.0252 µM
Nc1ncnc2c1ncn2[C@@H]1O[C@H](CNS(=O)(=O)c2ccc3ccccc3c2)[C@@H](O)[C@H]1O | 93 |  | 
Nc1ncnc2c1ncn2[C@@H]1O[C@H](CSCc2cc(C(=O)O)cc(-c3ccccc3)c2)[C@@H](O)[C@H]1O | 0.58 |  | 
CC1=C(C)C(=O)C(C(C)(C)CC(=O)N(CCCCSC[C@H]2O[C@@H](n3cnc4c(N)ncnc43)[C@H](O)[C@@H]2O)Cc2cccc(-c3ccc(Cl)cc3)c2)=C(C)C1=O | 1.1 |  | 
N#Cc1ccc(N2N=C3c4ccc(C(=O)O)cc4CC[C@@H]3[C@@H]2C2CCCC2)cc1Cl [PF-03882845] |  | 0.011 | 
O=c1nc2n(CCO)c3ccccc3nc-2c(=O)n1-c1ccccc1 |  | 0.0057 | 
CC(=O)c1cc(O)c2ccccc2c1O |  | 0.0085 | 
CC(C)N(CCCNC(=O)Nc1ccc(C(C)(C)C)cc1)C[C@H]1O[C@@H](n2cc(Br)c3c(N)ncnc32)[C@H](O)[C@@H]1O |  |  | Ki [3]: 8 µM
Nc1ncnc2c1ncn2[C@@H]1O[C@H](CSCCCCNCc2cccc(-c3ccc(Cl)cc3)c2)[C@@H](O)[C@H]1O |  |  | Ki [3]: 6 µM
O=c1c2ccccc2[se]n1-c1ccccc1 [EBSELEN] |  | 0.034 | 
CCN(C[C@H]1O[C@@H](n2cnc3c(N)ncnc32)[C@H](O)[C@@H]1O)S(=O)(=O)c1ccc(Cl)c(C#N)c1 |  | 0.0019 | 
Cc1cc(=O)oc2cc(NC(=O)[C@H]3O[C@@H](n4cc(C#Cc5cncnc5)c5c(N)ncnc54)[C@H](O)[C@@H]3O)ccc12 | 31 |  | 
NC[C@@H](CC[C@H](N)C(=O)O)C[C@H]1O[C@@H](n2cnc3c(N)ncnc32)[C@H](O)[C@@H]1O | 1.1 |  | Kd [1]: 0.0016 µM
COc1ccc(S(=O)(=O)N(C)C[C@H]2O[C@@H](n3cc(C#Cc4cnc5ccccc5c4)c4c(N)ncnc43)[C@H](O)[C@@H]2O)cc1C#N | 0.72 |  | 
Nc1ncnc2c1ncn2[C@@H]1O[C@H](CSCC[C@H](N)C(=O)O)[C@@H](O)[C@H]1O [S-ADENOSYLHOMOCYSTEINE] | 16 |  | 
Nc1ncnc2c1ncn2[C@@H]1O[C@H](CN(CCO[C@@H]2[C@H](O)[C@@H](CO)O[C@H]2n2cnc3c(N)ncnc32)S(=O)(=O)c2ccc(Cl)c([N+](=O)[O-])c2)[C@@H](O)[C@H]1O | 0.6 |  | 
O=C(O)C1=CC(=C(c2ccc(O)c(C(=O)O)c2)c2ccc(O)c(C(=O)O)c2)C=CC1=O [AURINTRICARBOXYLIC ACID] |  | 0.00047 | 
